Results from ChEMBL document CHEMBL1142149, “In vitro activities of the lipopeptides palmitoyl (Pal)-Lys-Lys-NH(2) and Pal-Lys-Lys alone and in combination with antimicrobial agents against multiresistant gram-positive cocci” (2007).
Values after ≈ are worked out from the molar mass of the structure shown. Active and inactive are the calls of the source. No cut-off for these calls is given here.

Legend:
Staphylococcus aureus [1] = test: Antimicrobial activity against methicillin-resistant Staphylococcus aureus ATCC 43300; format: functional; details: for MIC50 / MIC90: Staphylococcus aureus, ATCC 43300
Staphylococcus aureus [2] = test: Antimicrobial activity against methicillin-susceptible Staphylococcus aureus ATCC 29213; format: functional; details: for MIC50 / MIC90: Staphylococcus aureus, ATCC 29213
Enterococcus faecalis [3] = test: Antimicrobial activity against vancomycin-susceptible Enterococcus faecalis ATCC 29212; format: functional; details: for MIC50 / MIC90: Enterococcus faecalis, ATCC 29212
Enterococcus faecalis [4] = test: Antimicrobial activity against vancomycin-resistant Enterococcus faecalis ATCC 51299; format: functional; details: for MIC50 / MIC90: Enterococcus faecalis, ATCC 51299
Streptococcus pyogenes = test: Antimicrobial activity against Streptococcus pyogenes ATCC 19615; format: functional; details: for MIC50 / MIC90: Streptococcus pyogenes, ATCC 19615
Prescottella equi = test: Antimicrobial activity against Rhodococcus equi ATCC 6939; format: functional; details: for MIC50 / MIC90: Rhodococcus (subgen. Prescottella) equi, ATCC 6939
Erythrocyte = test: Effect on hemolytic activity in human RBC above 20 mg/liter; format: functional, cell-based

C[C@H]1c2cccc(O)c2C(=O)C2=C(O)[C@]3(O)C(=O)C(C(N)=O)=C(O)[C@@H](N(C)C)[C@@H]3[C@@H](O)[C@@H]21.O [DOXYCYCLINE]
MIC50 (Staphylococcus aureus [1]): 4 µg/mL
MIC90 (Staphylococcus aureus [1]): 16 µg/mL
MBC50 (Staphylococcus aureus [2]): 8 µg/mL
MBC90 (Staphylococcus aureus [2]): 32 µg/mL
MIC50 (Staphylococcus aureus [2]): 2 µg/mL
MIC90 (Staphylococcus aureus [2]): 8 µg/mL
MBC50 (Enterococcus faecalis [3]): 16 µg/mL
MBC90 (Enterococcus faecalis [3]): 64 µg/mL
MIC50 (Enterococcus faecalis [3]): 4 µg/mL
MIC90 (Enterococcus faecalis [3]): 32 µg/mL
MIC50 (Enterococcus faecalis [4]): 16 µg/mL
MIC90 (Enterococcus faecalis [4]): 64 µg/mL
MBC50 (Streptococcus pyogenes): 8 µg/mL
MBC90 (Streptococcus pyogenes): 16 µg/mL
MIC50 (Streptococcus pyogenes): 2 µg/mL
MIC90 (Streptococcus pyogenes): 8 µg/mL
MBC50 (Prescottella equi): 32 µg/mL
MBC90 (Prescottella equi): 128 µg/mL
MIC50 (Prescottella equi): 1 µg/mL
MIC90 (Prescottella equi): 2 µg/mL

C[C@@H](O)[C@H]1C(=O)N2C(C(=O)O)=C(SCCNC=N)C[C@H]12 [IMIPENEM ANHYDROUS]
MBC50 (Staphylococcus aureus [1]): 64 µg/mL (≈ 214 µM)
MBC90 (Staphylococcus aureus [1]): 256 µg/mL (≈ 855 µM)
MIC50 (Staphylococcus aureus [1]): 16 µg/mL (≈ 53.4 µM)
MIC90 (Staphylococcus aureus [1]): 128 µg/mL (≈ 428 µM)
MBC50 (Staphylococcus aureus [2]): 4 µg/mL (≈ 13.4 µM)
MBC90 (Staphylococcus aureus [2]): 8 µg/mL (≈ 26.7 µM)
MIC50 (Staphylococcus aureus [2]): 0.5 µg/mL (≈ 1.67 µM)
MIC90 (Staphylococcus aureus [2]): 2 µg/mL (≈ 6.68 µM)
MBC50 (Enterococcus faecalis [3]): 16 µg/mL (≈ 53.4 µM)
MBC90 (Enterococcus faecalis [3]): 64 µg/mL (≈ 214 µM)
MIC50 (Enterococcus faecalis [3]): 4 µg/mL (≈ 13.4 µM)
MIC90 (Enterococcus faecalis [3]): 16 µg/mL (≈ 53.4 µM)
MBC50 (Enterococcus faecalis [4]): 64 µg/mL (≈ 214 µM)
MBC90 (Enterococcus faecalis [4]): 128 µg/mL (≈ 428 µM)
MIC50 (Enterococcus faecalis [4]): 16 µg/mL (≈ 53.4 µM)
MIC90 (Enterococcus faecalis [4]): 64 µg/mL (≈ 214 µM)
MBC50 (Streptococcus pyogenes): 1 µg/mL (≈ 3.34 µM)
MBC90 (Streptococcus pyogenes): 4 µg/mL (≈ 13.4 µM)
MIC50 (Streptococcus pyogenes): 0.5 µg/mL (≈ 1.67 µM)
MIC90 (Streptococcus pyogenes): 1 µg/mL (≈ 3.34 µM)
MBC50 (Prescottella equi): 8 µg/mL (≈ 26.7 µM)
MBC90 (Prescottella equi): 16 µg/mL (≈ 53.4 µM)
MIC50 (Prescottella equi): 0.25 µg/mL (≈ 0.835 µM)
MIC90 (Prescottella equi): 1 µg/mL (≈ 3.34 µM)

CC[C@H]1OC(=O)[C@H](C)[C@@H](O[C@H]2C[C@@](C)(OC)[C@@H](O)[C@H](C)O2)[C@H](C)[C@@H](O[C@@H]2O[C@H](C)C[C@H](N(C)C)[C@H]2O)[C@](C)(O)C[C@@H](C)C(=O)[C@H](C)[C@@H](O)[C@]1(C)O [ERYTHROMYCIN]
MBC50 (Staphylococcus aureus [1]): 32 µg/mL (≈ 43.6 µM)
MIC50 (Staphylococcus aureus [1]): 4 µg/mL (≈ 5.45 µM)
MIC90 (Staphylococcus aureus [1]): 32 µg/mL (≈ 43.6 µM)
MBC50 (Staphylococcus aureus [2]): 16 µg/mL (≈ 21.8 µM)
MBC90 (Staphylococcus aureus [2]): 64 µg/mL (≈ 87.2 µM)
MIC50 (Staphylococcus aureus [2]): 4 µg/mL (≈ 5.45 µM)
MIC90 (Staphylococcus aureus [2]): 8 µg/mL (≈ 10.9 µM)
MBC50 (Enterococcus faecalis [3]): 32 µg/mL (≈ 43.6 µM)
MIC50 (Enterococcus faecalis [3]): 8 µg/mL (≈ 10.9 µM)
MIC90 (Enterococcus faecalis [3]): 32 µg/mL (≈ 43.6 µM)
MIC50 (Enterococcus faecalis [4]): 16 µg/mL (≈ 21.8 µM)
MIC90 (Enterococcus faecalis [4]): 64 µg/mL (≈ 87.2 µM)
MBC50 (Streptococcus pyogenes): 8 µg/mL (≈ 10.9 µM)
MBC90 (Streptococcus pyogenes): 32 µg/mL (≈ 43.6 µM)
MIC50 (Streptococcus pyogenes): 4 µg/mL (≈ 5.45 µM)
MIC90 (Streptococcus pyogenes): 8 µg/mL (≈ 10.9 µM)
MBC50 (Prescottella equi): 32 µg/mL (≈ 43.6 µM)
MBC90 (Prescottella equi): 64 µg/mL (≈ 87.2 µM)
MIC50 (Prescottella equi): 0.5 µg/mL (≈ 0.681 µM)
MIC90 (Prescottella equi): 2 µg/mL (≈ 2.73 µM)

CCCCCCCCCCCCCCCC(=O)N[C@@H](CCCCN)C(=O)N[C@@H](CCCCN)C(N)=O
MIC50 (Staphylococcus aureus [1]): 4 µg/mL (≈ 7.82 µM)
MIC90 (Staphylococcus aureus [1]): 8 µg/mL (≈ 15.6 µM)
MBC50 (Staphylococcus aureus [2]): 8 µg/mL (≈ 15.6 µM)
MBC90 (Staphylococcus aureus [2]): 16 µg/mL (≈ 31.3 µM)
MIC50 (Staphylococcus aureus [2]): 4 µg/mL (≈ 7.82 µM)
MIC90 (Staphylococcus aureus [2]): 8 µg/mL (≈ 15.6 µM)
MBC50 (Enterococcus faecalis [3]): 4 µg/mL (≈ 7.82 µM)
MBC90 (Enterococcus faecalis [3]): 8 µg/mL (≈ 15.6 µM)
MIC50 (Enterococcus faecalis [3]): 2 µg/mL (≈ 3.91 µM)
MIC90 (Enterococcus faecalis [3]): 4 µg/mL (≈ 7.82 µM)
MBC90 (Enterococcus faecalis [4]): 16 µg/mL (≈ 31.3 µM)
MIC50 (Enterococcus faecalis [4]): 2 µg/mL (≈ 3.91 µM)
MIC90 (Enterococcus faecalis [4]): 4 µg/mL (≈ 7.82 µM)
MBC50 (Streptococcus pyogenes): 2 µg/mL (≈ 3.91 µM)
MBC90 (Streptococcus pyogenes): 4 µg/mL (≈ 7.82 µM)
MIC50 (Streptococcus pyogenes): 1 µg/mL (≈ 1.95 µM)
MIC90 (Streptococcus pyogenes): 2 µg/mL (≈ 3.91 µM)
MBC50 (Prescottella equi): 8 µg/mL (≈ 15.6 µM)
MBC90 (Prescottella equi): 32 µg/mL (≈ 62.5 µM)
MIC50 (Prescottella equi): 4 µg/mL (≈ 7.82 µM)
MIC90 (Prescottella equi): 16 µg/mL (≈ 31.3 µM)
Activity (Erythrocyte): Active
